Assay results: ChEMBL document CHEMBL1130447, “Two-ring DNA minor-groove binders consisting of readily available, di-substituted benzene derivatives” (Bioorg Med Chem Lett, 1997)

Assays:
Format in all cases: nucleic-acid assay
Nucleic Acid [1] = assay: The compound was tested for its binding affinity to Poly (dA-dT) by using ethidium displacement assay
Nucleic Acid [2] = assay: The compound was tested for its binding affinity to Poly (dG-dC) by using ethidium displacement assay
Nucleic Acid [3] = assay: The compound was tested for its binding affinity to calf thymus DNA by using ethidium displacement assay; conditions: Bos taurus
Nucleic Acid [4] = assay: The compound was tested for its binding affinity to T4 ethidium displacement assay

Structure (SMILES) | C50 (Nucleic Acid [1]) [µM] | C50 (Nucleic Acid [2]) [µM] | C50 (Nucleic Acid [3]) [µM] | C50 (Nucleic Acid [4]) [µM]
N=C(N)c1ccc(/N=N/Nc2ccc(C(=N)N)cc2)cc1 | 0.9 | 5.7 | – | –
CN(C)CCCNC(=O)Nc1cccc(NC(=O)c2ccc(C(=O)NCCCN(C)C)cc2)c1 | 4.2 | 222 | 43.5 | 28.6
CN1CCN(c2ccc3[nH]c(-c4ccc5[nH]c(-c6ccc(O)cc6)nc5c4)nc3c2)CC1 | 0.2 | 1.4 | – | –

Further lines, results first:

C50 (Nucleic Acid [1]) [µM] | C50 (Nucleic Acid [2]) [µM] | C50 (Nucleic Acid [3]) [µM] | C50 (Nucleic Acid [4]) [µM] | Structure (SMILES)
0.17 | 2.8 | – | – | C[n+]1ccc(Nc2ccc(NC(=O)c3ccc(Nc4cc[n+](C)c5ccccc45)cc3)cc2)cc1
23.5 | 77.3 | 44.8 | 35.2 | CN(C)CCCNC(=O)Nc1ccc(NC(=O)c2ccc(C(=O)NCCCN(C)C)cc2)cc1
28.4 | 55.6 | 47.3 | 35.6 | CN(C)CCCNC(=O)c1cccc(C(=O)Nc2ccc(NC(=O)CCCN(C)C)cc2)c1
1.9 | 142 | 31.9 | 27.1 | CN(C)CCCNC(=O)c1ccc(C(=O)Nc2cccc(NC(=O)CCCN(C)C)c2)cc1
